The values below come from patent US20100311714A1, “1H-IMIDAZO[4,5-c]QUINOLINONE COMPOUNDS” (priority 2009, published 2010).

Molecules are shown by their SMILES. Bounds are passed on as bounds.

Assay [1] concerns PKB Ser473 phosphorylation in Rat1-myr-HA-p110 alpha cells. Kind of assay: Reverse protein array, PKB Ser473 phosphorylation in Rat1-myr-HA-p110 alpha cells. The conditions noted are these: Rattus norvegicus, 0.5 h, 30 minutes compound incubation, read-out: p-PKB/IC50_alpha. The assay is classed as cell-based.
For assay [2], the system named is PKB Ser473 phosphorylation in Rat1-myr-HA-p110 beta cells. As to the kind of experiment: Reverse protein array, PKB Ser473 phosphorylation in Rat1-myr-HA-p110 beta cells. In kind it is cell-based. The conditions noted are these: Rattus norvegicus, 0.5 h, 30 minutes compound incubation, read-out: p-PKB/IC50_beta.

As to `COc1ncccc1-n1c(=O)n(C)c2cnc3ccc(-c4cnc5[nH]ccc5c4)cc3c21` [Example 1.2, 1-(2-Methoxy-pyridin-3-yl)-3-methyl-8-(1H-pyrrolo[2,3-b]pyridin-5-yl)-1,3-dihydro-imidazo[4,5-c]quinolin-2-one], the IC50 was 5.7 nM in assay [1] and less than 4.57 nM in assay [2].
Take `COc1ncccc1-n1c(=O)n(C)c2cnc3ccc(-c4ccc(C(N)=O)cc4)cc3c21` [Example 1.6, 4-[1-(2-Methoxy-pyridin-3-yl)-3-methyl-2-oxo-2,3-dihydro-1H-imidazo[4,5-c]quinolin-8-yl]-benzamide]: the IC50 came to 6.56 nM in assay [1] and 16.9 nM in assay [2].
`Cc1ncccc1-n1c(=O)n(C)c2cnc3ccc(-c4ccc(C(N)=O)cc4)cc3c21` [Example 2.3, 4-[3-Methyl-1-(2-methyl-pyridin-3-yl)-2-oxo-2,3-dihydro-1H-imidazo[4,5-c]quinolin-8-yl]-benzamide]: the IC50 in assay [1] was 21 nM; in assay [2] it was 15.9 nM.
On to `CCOc1ncc(-c2ccc3ncc4c(c3c2)n(-c2cccnc2C)c(=O)n4C)cn1` [Example 2.5, 8-(2-Ethoxy-pyrimidin-5-yl)-3-methyl-1-(2-methyl-pyridin-3-yl)-1,3-dihydro-imidazo[4,5-c]quinolin-2-one], for which the results for the IC50 in assay [1] and in assay [2] were 49 nM and 53.8 nM, respectively.
With `Cc1ncccc1-n1c(=O)n(C)c2cnc3ccc(-c4ccc(CO)nc4)cc3c21` [Example 2.6, 8-(6-Hydroxymethyl-pyridin-3-yl)-3-methyl-1-(2-methyl-pyridin-3-yl)-1,3-dihydro-imidazo[4,5-c]quinolin-2-one], the IC50 is 38.6 nM in assay [1] and 72.9 nM in assay [2].
Consider `Cc1ncccc1-n1c(=O)n(C)c2cnc3ccc(-c4ccc(N)nc4)cc3c21` [Example 2.7, 8-(6-Amino-pyridin-3-yl)-3-methyl-1-(2-methyl-pyridin-3-yl)-1,3-dihydro-imidazo[4,5-c]quinolin-2-one], for which the IC50 in assay [1] was 11.6 nM; in assay [2] it was 19.2 nM.
For the compound `COc1ccc(-c2ccc3ncc4c(c3c2)n(-c2cccnc2C)c(=O)n4C)cc1OC` [Example 2.9, 8-(3,4-Dimethoxy-phenyl)-3-methyl-1-(2-methyl-pyridin-3-yl)-1,3-dihydro-imidazo[4,5-c]quinolin-2-one], the IC50 was 8.4 nM in assay [1] and 15.7 nM in assay [2].
As to `Cc1ncccc1-n1c(=O)n(C)c2cnc3ccc(-c4ccc(OCCCN(C)C)nc4)cc3c21` [Example 2.10, 8-[6-(3-Dimethylamino-propoxy)-pyridin-3-yl]-3-methyl-1-(2-methyl-pyridin-3-yl)-1,3-dihydro-imidazo[4,5-c]quinolin-2-one], the IC50 in assay [1] came out at 114 nM; in assay [2] it was 84.2 nM.
For the compound `Cc1ncccc1-n1c(=O)n(C)c2cnc3ccc(-c4cnc(N)c(C(F)(F)F)c4)cc3c21` [Example 2.11, 8-(6-Amino-5-trifluoromethyl-pyridin-3-yl)-3-methyl-1-(2-methyl-pyridin-3-yl)-1,3-dihydro-imidazo[4,5-c]quinolin-2-one], the IC50 in assay [1] is 7.02 nM; in assay [2] it was 9.92 nM.
Regarding `COc1ccc(-c2ccc3ncc4c(c3c2)n(-c2cccnc2C)c(=O)n4C)cn1` [Example 2.12, 8-(6-Methoxy-pyridin-3-yl)-3-methyl-1-(2-methyl-pyridin-3-yl)-1,3-dihydro-imidazo[4,5-c]quinolin-2-one], the IC50 in assay [1] came out at 29.8 nM; in assay [2], 19.8 nM.
In the same order, the values of `CNc1ccc(-c2ccc3ncc4c(c3c2)n(-c2cccnc2C)c(=O)n4C)cn1` [Example 2.13, 3-Methyl-8-(6-methylamino-pyridin-3-yl)-1-(2-methyl-pyridin-3-yl)-1,3-dihydro-imidazo[4,5-c]quinolin-2-one] are 11.5 nM and 18.7 nM.
As to `Cc1ncccc1-n1c(=O)n(C)c2cnc3ccc(-c4cnc(N(C)C)nc4)cc3c21` [Example 2.15, 8-(2-Dimethylamino-pyrimidin-5-yl)-3-methyl-1-(2-methyl-pyridin-3-yl)-1,3-dihydro-imidazo[4,5-c]quinolin-2-one], the IC50 in assay [1] was found to be 72.4 nM; in assay [2], 101 nM.
`Cc1ncccc1-n1c(=O)n(C)c2cnc3ccc(-c4cncc(NC(C)C)c4)cc3c21` [Example 2.24, 8-(5-Isopropylamino-pyridin-3-yl)-3-methyl-1-(2-methyl-pyridin-3-yl)-1,3-dihydro-imidazo[4,5-c]quinolin-2-one]: the IC50 was 22.2 nM in assay [1] and 16.4 nM in assay [2].
As for `Cc1ncccc1-n1c(=O)n(C)c2cnc3ccc(-c4cncc(N)c4)cc3c21` [Example 2.25, 8-(5-Amino-pyridin-3-yl)-3-methyl-1-(2-methyl-pyridin-3-yl)-1,3-dihydro-imidazo[4,5-c]quinolin-2-one], the IC50 in assay [1] came out at 36.3 nM; in assay [2] it was 58.7 nM.
Take `CNc1cncc(-c2ccc3ncc4c(c3c2)n(-c2cccnc2C)c(=O)n4C)c1` [Example 2.26, 3-Methyl-8-(5-methylamino-pyridin-3-yl)-1-(2-methyl-pyridin-3-yl)-1,3-dihydro-imidazo[4,5-c]quinolin-2-one]: the IC50 in assay [1] came to 6.4 nM; in assay [2], 7.4 nM.
For `COc1cc(-c2ccc3ncc4c(c3c2)n(-c2cccnc2C)c(=O)n4C)cnc1C(OC)OC` [Example 2.27, 8-(6-Dimethoxymethyl-5-methoxy-pyridin-3-yl)-3-methyl-1-(2-methyl-pyridin-3-yl)-1,3-dihydro-imidazo[4,5-c]quinolin-2-one] the same measures were 100 nM and 247 nM.
For `CCOc1cc(-c2ccc3ncc4c(c3c2)n(-c2cccnc2C)c(=O)n4C)cnc1COC` [Example 2.28, 8-(5-Ethoxy-6-methoxymethyl-pyridin-3-yl)-3-methyl-1-(2-methyl-pyridin-3-yl)-1,3-dihydro-imidazo[4,5-c]quinolin-2-one], the IC50 in assay [1] came to 23.7 nM; in assay [2], 61 nM.
For `Cc1ncccc1-n1c(=O)n(C)c2cnc3ccc(-c4cncc(N5CCC5)c4)cc3c21` [Example 2.29, 8-(5-Azetidin-1-yl-pyridin-3-yl)-3-methyl-1-(2-methyl-pyridin-3-yl)-1,3-dihydro-imidazo[4,5-c]quinolin-2-one], the values for the IC50 in assay [1] and in assay [2] were 8.7 nM and 19.7 nM, respectively.
Turning to `CCNc1cc(-c2ccc3ncc4c(c3c2)n(-c2cccnc2C)c(=O)n4C)cnc1CO` [Example 2.31, 8-(5-Ethylamino-6-hydroxymethyl-pyridin-3-yl)-3-methyl-1-(2-methyl-pyridin-3-yl)-1,3-dihydro-imidazo[4,5-c]quinolin-2-one], the figures for the IC50 in assay [1] and in assay [2] were less than 4.57 nM and 5.7 nM, respectively.
With `CCOc1ncc(-c2ccc3ncc4c(c3c2)n(-c2ncccc2C)c(=O)n4C)cn1` [Example 3.1, 8-(2-Ethoxy-pyrimidin-5-yl)-3-methyl-1-(3-methyl-pyridin-2-yl)-1,3-dihydro-imidazo[4,5-c]quinolin-2-one], in assay [1], the IC50 was 632 nM.
Consider `Cc1cccnc1-n1c(=O)n(C)c2cnc3ccc(-c4ccc(N(C)C)nc4)cc3c21` [Example 3.11, 8-(6-Dimethylamino-pyridin-3-yl)-3-methyl-1-(3-methyl-pyridin-2-yl)-1,3-dihydro-imidazo[4,5-c]quinolin-2-one], for which, in assay [1], the IC50 amounted to 372 nM.
